Values of other authors in patent US6903092B2, “Naphthamide neurokinin antagonists for use as medicaments” (priority 2000, dated 2005).
Like-named read-outs stand apart in the source and are kept apart here. Square brackets hold non-standard residues; d marks the D form. Peptide text beside a SMILES is read from it. * marks the point of attachment. Cyclohexanecarbonyl = O=C(C1CCCCC1)*

Key:
[1] = not given; remark: listed apart in the source
[2] = Vassout et al, Neuropeptides 26/S1: 38, 1994; only at 30 mg/kg bid
[3] = not given; remark: listed apart in the source
Marmoset = conditions: Walsh et al., Psychopharmacology 121: 186-191, 1995
[4] = Vassout et al, Neuropeptides 26/S1: 38, 1994
[5] = Teixeira et al., Eur J Pharmacol 311(1): 7-14, 1996
[6] = Stratton et al., Eur. J. Pharmacol. 250: R11-12, 1993
[7] = Walsh et al., Psychopharmacology 121: 186-191, 1995

Cc1cc(C)cc(C(=O)N2CC[C@H](NCc3ccnc4ccccc34)C[C@H]2Cc2ccccc2)c1 [CGP 49823]
Outcome, Elevated plus-maze [4]: inactive | Outcome, Social interaction ([1]; File, Pharm Bio B 58(3): 747-752, 1997): anxiolytic | Outcome, Social interaction test [1, 4]: anxiolytic | Outcome, Forced swim test (depression model) [2]: antidepressant

CN(Cc1ccccc1)C(=O)[C@H](Cc1ccc2ccccc2c1)NC(=O)[C@@H]1C[C@@H](O)CN1C(=O)c1cn(C)c2ccccc12 [FK888]
Outcome, Elevated plus-maze [5]: anxiolytic

C[C@H](NC(=O)CNC(=O)C1CCCCC1)C(=O)N[C@H](Cc1c[nH]c2ccccc12)C(=O)N[C@@H](Cc1ccccc1)C(=O)N(C)C [GR100679] (Cyclohexanecarbonyl-GA[dW]F-NMe2)
Outcome, Light-dark box [3, 6]: anxiolytic

COC1(C[S@@+]([O-])c2ccccc2)CCN(CCc2c[nH]c3ccc(F)cc23)CC1 [GR159897]
Outcome, Light-dark box [3, 7]: anxiolytic | Outcome, Marmoset human intruder (Marmoset): anxiolytic

CC(=O)NC1(c2ccccc2)CCN(CC[C@H](CN(C)C(=O)c2ccccc2)c2ccc(Cl)c(Cl)c2)CC1 [SR48968]
Outcome, Elevated plus-maze [5]: anxiolytic | Outcome, Light-dark box [3, 6]: anxiolytic | Outcome, Light-dark box [3, 7]: anxiolytic | Outcome, Marmoset human intruder (Marmoset): anxiolytic
